{"source": "patent US20110152094A1", "about": "“Herbicidal compositions comprising flufenacet” (Bayer CropScience AG, priority 2009, published 2011)", "format_in_all_cases": "in vivo", "key": {"[1]": {"system": "TRZAS = Triticum aestivum, summer wheat", "test": "Greenhouse trial, activity with different soil types (test method 7)", "details": "g of AS/ha: (A) 120, (B) 1200, (A)+(B) 120 + 1200", "procedure": "(§1) In the standard design of the test, seeds of various broad-leaved weed and weed grass biotypes (origins) were sown in a 8-13 cm diameter pot filled with natural soil of a standard field soil (loamy silt; non-sterile) and covered with a covering soil layer of about 1 cm. The pots were then cultivated in a greenhouse (12-16 h of light, temperature day 20-22° C., night 15-18° C.) until the time of application. The pots were treated on a laboratory track sprayer with spray liquors comprising the compositions according to the invention, mixtures of the prior art or components used individually. Application of the active compounds or active compound combinations formulated as WG, WP, EC or otherwise was carried out at the appropriate growth stages of the plants. The application rate for the spray application was 100-600 l of water/ha. After the treatment, the plants were returned to the greenhouses.\n(§2) About 3 weeks after the application, the soil action or/and foliar action was assessed visually according to a scale of 0-100% in comparison to an untreated comparative group: 0%=no noticeable effect compared to the untreated comparative group; 100%=full effect compared to the untreated comparative group.\n(§3) (notes: the term “seeds” also includes vegetative propagation forms such as, for example, rhizome pieces; abbreviations used: h light=hours of illumination, g of AS/ha=gram of active substance per hectare, l/ha=liter per hectare, S=sensitive, R=resistant) • 1. Pre-emergence action against weeds: seeds of various broad-leaved weed and weed grass biotypes (origins) were sown in a 8-13 cm diameter pot filled with natural soil of a standard field soil (loamy silt; non-sterile) and covered with a covering soil layer of about 1 cm. The pots were then cultivated in a greenhouse (12-16 h of light, temperature day 20-22° C., night 15-18° C.) until the time of application. The pots were treated at the BBCH stage 00-10 of the seeds/plants on a laboratory track sprayer with spray liquors comprising the compositions according to the invention, mixtures or components used individually, as WG, WP, EC or other formulations. The application rate for the spray application was 100-600 l of water/ha. After the treatment, the plants were returned to the greenhouses and, when required, treated with fertilizer and watered. • 2. Post-emergence action against weeds: seeds of various broad-leaved weed and weed grass biotypes (origins) were sown in a 8-13 cm diameter pot filled with natural soil of a standard field soil (loamy silt; non-sterile) and covered with a covering soil layer of about 1 cm. The pots were then cultivated in a greenhouse (12-16 h of light, temperature day 20-22° C., night 15-18° C.) until the time of application. The pots were treated at various BBCH stages between 11-25 of the seeds/plants, i.e. generally between two to three weeks after the start of the cultivation, on a laboratory track sprayer with spray liquors comprising the compositions according to the invention, mixtures or components used individually, as WG, WP, EC or other formulations. The application rate for the spray application was 100-600 l of water/ha. After the treatment, the plants were returned to the greenhouses and, when required, treated with fertilizer and watered. • 3. Selective pre-emergence action: seeds of various crop species (origins) were sown in a 8-13 cm diameter pot filled with natural soil of a standard field soil (loamy silt; non-sterile) and covered with a covering soil layer of about 1 cm. The pots were then cultivated in a greenhouse (12-16 h of light, temperature day 20-22° C., night 15-18° C.) until the time of application. The pots were treated at the BBCH stage 00-10 of the seeds/plants on a laboratory track sprayer with spray liquors comprising the compositions according to the invention, mixtures or components used individually, as WG, WP, EC or other formulations. The application rate for the spray application was 100-600 l of water/ha. […]"}, "STEME = Stellaria media [2]": {"system": "STEME = Stellaria media", "test": "Greenhouse trial, activity with different soil types (test method 7)", "details": "g of AS/ha: (A) 120, (B) 1200, (A)+(B) 120 + 1200", "procedure": "as §1, §2, §3"}, "[3]": {"system": "HORVS = Hordeum vulgare, summer barley", "test": "Greenhouse trial, selective post-emergence (PO) action on crop plant (test method 4)", "details": "PO application, g of AS/ha: (A) 120, (B) 1200, (A)+(B) 120 + 1200, about 3 weeks after application", "procedure": "as §1\nas §2, with “group. […]” for “group.”"}, "[4]": {"system": "HORVW = Hordeum vulgare, winter barley", "test": "Greenhouse trial, pre-sowing application 7 days prior to sowing (test method 5)", "details": "g of AS/ha: (A) 90, (B) 1200, (A)+(B) 90 + 1200", "procedure": "as §1, §2\n(§4) (notes: the term “seeds” also includes vegetative propagation forms such as, for example, rhizome pieces; abbreviations used: h light=hours of illumination, g of AS/ha=gram of active substance per hectare, l/ha=liter per hectare, S=sensitive, R=resistant) • 1. Pre-emergence action against weeds: seeds of various broad-leaved weed and weed grass biotypes (origins) were sown in a 8-13 cm diameter pot filled with natural soil of a standard field soil (loamy silt; non-sterile) and covered with a covering soil layer of about 1 cm. The pots were then cultivated in a greenhouse (12-16 h of light, temperature day 20-22° C., night 15-18° C.) until the time of application. The pots were treated at the BBCH stage 00-10 of the seeds/plants on a laboratory track sprayer with spray liquors comprising the compositions according to the invention, mixtures or components used individually, as WG, WP, EC or other formulations. The application rate for the spray application was 100-600 l of water/ha. After the treatment, the plants were returned to the greenhouses and, when required, treated with fertilizer and watered. • 2. Post-emergence action against weeds: seeds of various broad-leaved weed and weed grass biotypes (origins) were sown in a 8-13 cm diameter pot filled with natural soil of a standard field soil (loamy silt; non-sterile) and covered with a covering soil layer of about 1 cm. The pots were then cultivated in a greenhouse (12-16 h of light, temperature day 20-22° C., night 15-18° C.) until the time of application. The pots were treated at various BBCH stages between 11-25 of the seeds/plants, i.e. generally between two to three weeks after the start of the cultivation, on a laboratory track sprayer with spray liquors comprising the compositions according to the invention, mixtures or components used individually, as WG, WP, EC or other formulations. The application rate for the spray application was 100-600 l of water/ha. After the treatment, the plants were returned to the greenhouses and, when required, treated with fertilizer and watered. • 3. […]"}, "AVEFA = Avena fatua [5]": {"system": "AVEFA = Avena fatua", "test": "Greenhouse trial, pre-sowing application 7 days prior to sowing (test method 5)", "details": "g of AS/ha: (A) 90, (B) 1200, (A)+(B) 90 + 1200", "procedure": "as §1, §2, §4"}, "[6]": {"system": "MATCH = Matricaria chamomilla", "test": "Greenhouse trial, pre-sowing application 7 days prior to sowing (test method 5)", "details": "g of AS/ha: (A) 90, (B) 1200, (A)+(B) 90 + 1200", "procedure": "as §1, §2, §4"}, "AVEFA = Avena fatua [7]": {"system": "AVEFA = Avena fatua", "test": "Greenhouse trial, pre-emergence (PE) action against weeds (test method 1)", "details": "PE application; g of AS/ha: (A) 90, (B) 1200, (A)+(B) 90 + 1200", "procedure": "as §1, §2\n(§5) (notes: the term “seeds” also includes vegetative propagation forms such as, for example, rhizome pieces; abbreviations used: h light=hours of illumination, g of AS/ha=gram of active substance per hectare, l/ha=liter per hectare, S=sensitive, R=resistant) • 1. Pre-emergence action against weeds: seeds of various broad-leaved weed and weed grass biotypes (origins) were sown in a 8-13 cm diameter pot filled with natural soil of a standard field soil (loamy silt; non-sterile) and covered with a covering soil layer of about 1 cm. The pots were then cultivated in a greenhouse (12-16 h of light, temperature day 20-22° C., night 15-18° C.) until the time of application. The pots were treated at the BBCH stage 00-10 of the seeds/plants on a laboratory track sprayer with spray liquors comprising the compositions according to the invention, mixtures or components used individually, as WG, WP, EC or other formulations. The application rate for the spray application was 100-600 l of water/ha. After the treatment, the plants were returned to the greenhouses and, when required, treated with fertilizer and watered. • 2. Post-emergence action against weeds: seeds of various broad-leaved weed and weed grass biotypes (origins) were sown in a 8-13 cm diameter pot filled with natural soil of a standard field soil (loamy silt; non-sterile) and covered with a covering soil layer of about 1 cm. The pots were then cultivated in a greenhouse (12-16 h of light, temperature day 20-22° C., night 15-18° C.) until the time of application. […]"}, "[8]": {"system": "MATCH = Matricaria chamomilla", "test": "Greenhouse trial, pre-emergence (PE) action against weeds (test method 1)", "details": "PE application; g of AS/ha: (A) 90, (B) 1200, (A)+(B) 90 + 1200", "procedure": "as §1, §2, §5"}, "VIOAR = Viola arvensis": {"system": "VIOAR = Viola arvensis", "test": "Greenhouse trial, post-emergence (PO) action against weeds (test method 2)", "details": "PO application; g of AS/ha: (A) 120, (B) 1200, (A)+(B) 120 + 1200; about 3 weeks after application", "procedure": "as §1, §2, §3"}, "LOLPE = Lolium perenne": {"system": "LOLPE = Lolium perenne", "test": "Greenhouse trial, post-emergence (PO) action against weeds (test method 2)", "details": "PO application; g of AS/ha: (A) 120, (B) 1200, (A)+(B) 120 + 1200; about 3 weeks after application", "procedure": "as §1, §2, §3"}, "STEME = Stellaria media [9]": {"system": "STEME = Stellaria media", "test": "Greenhouse trial, post-emergence (PO) action against weeds (test method 2)", "details": "PO application; g of AS/ha: (A) 120, (B) 1200, (A)+(B) 120 + 1200; about 3 weeks after application", "procedure": "as §1, §2, §3"}, "[10]": {"system": "TRZAW = Triticum aestivum, winter wheat", "test": "Greenhouse trial, PE application at different sowing depths (test method 9)", "details": "g of AS/ha: (A) 120, (B) 1200, (A)+(B) 120 + 1200", "procedure": "as §1, §2, §3"}}}
{"smiles": "CCC(CC)Nc1c([N+](=O)[O-])cc(C)c(C)c1[N+](=O)[O-]", "note": "[(B) pendimethalin, N-(1-ethylpropyl)-3,4-dimethyl-2,6-dinitrobenzenamine]", "values": [{"measurement": "activity on crop plant TRZAS IU soil (visual assessment, scale 0-100% vs untreated)", "setting": "[1]; IU soil", "result": 5, "unit": "%"}, {"measurement": "Difference of the soil types Δ^D, TRZAS", "setting": "[1]; IU/EC73 soil versus IU soil, crop plant", "result": "Δ^D −5%"}, {"measurement": "activity on crop plant TRZAS IU/EC73 soil (visual assessment, scale 0-100% vs untreated)", "setting": "[1]; IU/EC73 soil", "result": 0, "unit": "%"}, {"measurement": "activity STEME IU soil (visual assessment, scale 0-100% vs untreated)", "setting": "STEME = Stellaria media [2]; IU soil (loamy silt, standard field soil)", "result": 85, "unit": "%"}, {"measurement": "activity STEME IU/EC73 soil (visual assessment, scale 0-100% vs untreated)", "setting": "STEME = Stellaria media [2]; IU/EC73 soil (heavier soil, higher organic substance)", "result": 55, "unit": "%"}, {"measurement": "Difference of the soil types Δ^D, STEME", "setting": "STEME = Stellaria media [2]; IU/EC73 soil versus IU soil", "result": "Δ^D −30%"}, {"measurement": "activity on crop plant HORVS (visual assessment, scale 0-100% vs untreated)", "setting": "[3]", "result": 10, "unit": "%"}, {"measurement": "activity on crop plant HORVW (visual assessment, scale 0-100% vs untreated)", "setting": "[4]", "result": 40, "unit": "%"}, {"measurement": "activity AVEFA (visual assessment, scale 0-100% vs untreated)", "setting": "AVEFA = Avena fatua [5]", "result": 70, "unit": "%"}, {"measurement": "activity MATCH (visual assessment, scale 0-100% vs untreated)", "setting": "[6]", "result": 0, "unit": "%"}, {"measurement": "activity AVEFA (visual assessment, scale 0-100% vs untreated)", "setting": "AVEFA = Avena fatua [7]", "result": 88, "unit": "%"}, {"measurement": "activity MATCH (visual assessment, scale 0-100% vs untreated)", "setting": "[8]", "result": 18, "unit": "%"}, {"measurement": "activity VIOAR (visual assessment, scale 0-100% vs untreated)", "setting": "VIOAR = Viola arvensis", "result": 30, "unit": "%"}, {"measurement": "activity LOLPE (visual assessment, scale 0-100% vs untreated)", "setting": "LOLPE = Lolium perenne", "result": 0, "unit": "%"}, {"measurement": "activity STEME (visual assessment, scale 0-100% vs untreated)", "setting": "STEME = Stellaria media [9]", "result": 30, "unit": "%"}, {"measurement": "activity on crop plant TRZAW, sowing depth 5 mm (visual assessment, scale 0-100% vs untreated)", "setting": "[10]; sowing depth 5 mm", "result": 45, "unit": "%"}, {"measurement": "activity on crop plant TRZAW, sowing depth 20 mm (visual assessment, scale 0-100% vs untreated)", "setting": "[10]; sowing depth 20 mm", "result": 10, "unit": "%"}]}
